In paper PMC11320734 (ACS Pharmacology & Translational Science, 2024):
≈ marks a conversion by molar mass, not a printed value. Where two headings read alike, the source gives them in different places.

What was measured:
80 additional receptors = test: CEREP off-target binding screen
[1] = Thermodynamic solubility assay (THESA), also in FaSSIF and FeSSIF; assay type: physicochemical; conditions: thermodynamic from solid
Protocol: (§1) For the determination of the octanol/water distribution coefficient (logD), the carrier-mediated distribution system (CAMDIS)-assay was used as described elsewhere.[38] Kinetic and thermodynamic solubilities were assessed using the lyophilization solubility assay (LYSA) and thermodynamic solubility assay (THESA), respectively. For the LYSA, the solubility of RNB- 61 in phosphate buffer at pH 6.5 from an evaporated 10 mM DMSO compound stock solution was measured. Two aliquots of the test compounds were dried and dissolved in phosphate buffer at pH 6.5. The solutions were then filtered and diluted (3 different dilution levels for each compound) before high throughput mass spectrometry (MS) analysis was performed in an Agilent RapidFire system. Each test compound was quantified using a 6-point calibration curve prepared with the same DMSO starting solution. For THESA, RNB-61 (8.6 mg per mL solvent/vehicle) was stirred in HPLC vials (9 × 12 × 32 mm, Waters) at 350 rpm for 15 h. The presence of solid particles was determined by microscopic analysis of 10 μL samples. If the active pharmacological ingredient (API) was completely dissolved, more solid API was added before stirring for another 15 h. This step was repeated for up to 96 h or until residual solid particles could be detected. Samples (0.5 mL) were transferred to Eppendorf Ultrafree filter tubes (Filter: PVDF 0.22 μm) and centrifuged at 14,500 rpm for 10 min. The filtrates were diluted in ethanol and analyzed by ultra-performance liquid chromatography (UPLC). Measurements were repeated in 0.05 M aqueous phosphate buffer and in fasted (FaSSIF) and fed (FeSSIF) simulated gastrointestinal fluids.

[2] = Octanol/water distribution coefficient (logD), CAMDIS assay; assay type: physicochemical
Protocol: as §1

pKa = assay type: physicochemical; conditions: basic nitrogen N1 of the pyrazole ring
[3] = Parallel artificial membrane permeability (PAMPA) assay; assay type: in vitro ADME; conditions: for Papp: PAMPA, read-out: PAMPA Peff
Protocol: The general permeability of the compound was assessed using the parallel artificial membrane permeability (PAMPA) assay and the permeability-glycoprotein (P-gp) assay was used to specifically test for brain penetration. PAMPA data were generated as previously reported by our group.[44] The P-gp assay, which evaluates the brain penetration of test compounds, was performed as described elsewhere.[45] Briefly, transfected porcine kidney epithelial (LLC-PK1) cells expressing human or mouse P-gp were cultured on 96-well semipermeable filter membrane plates (Millipore, Darmstadt, Germany). Cells formed a polarized monolayer with tight junctions that acted as a barrier between apical and basolateral compartments. P-gp was expressed in the apical-facing membrane of the monolayer (tightness confirmed using Lucifer yellow). To determine the unidirectional permeability (Papp) of RNB-61, samples were added separately to the apical (for A > B Papp) and basolateral (for B > A Papp) sides of the cell monolayer (i.e., donor compartments), and RNB-61 movement into the respective receiver compartments was measured by LC-MS/MS over a 3 h incubation at 37 °C. The effect of P-gp was measured by expressing the efflux ratio of the unidirectional A > B and B > A Papp values. The mean permeability (A > B and B > A Papp) was determined in the absence of P-gp via the addition of the selective P-gp inhibitor, tariquidar.

[4] = Hepatocyte clearance assay; assay type: in vitro ADME
Protocol: The hepatocyte clearance assay was performed as previously described.[39] For mice hepatocytes, the suspension cultures were either freshly prepared by liver perfusion or prepared from cryopreserved hepatocyte batches (pooled C57BL6 mouse hepatocytes were purchased from BioreclamationIVT (NY, USA)). For human hepatocytes, commercially available, pooled (5–20 donors), cryopreserved samples from nontransplantable liver tissues were used. For the suspension cultures, Nunc U96 PP-0.5 mL (Nunc Natural, 267245) plates were used, which were incubated in a Thermo Forma incubator from Fischer Scientific (Wohlen, Switzerland) equipped with shakers from Variomag Teleshake (Sterico, Wangen, Switzerland) for maintaining cell dispersion. The cell culture medium was William’s media supplemented with glutamine, antibiotics (100 IU/mL Penicillin-Streptomycin, Gibco), insulin, dexamethasone, and 10% fetal calf serum (FCS). Incubations of a test compound at 1 μM test concentration in suspension cultures of 1 × 10^6 cells mL^–1 (∼1 μg μL^–1 protein concentration) were performed in 96-well plates and shaken at 900 rpm for up to 2 h in a 5% CO2 atmosphere at 37 °C. After 3, 6, 10, 20, 40, 60, and 120 min, a 100 μL cell suspension in each well was quenched with 200 μL methanol containing an internal standard. Samples were then cooled and centrifuged before analysis by LC-MS/MS. […]

CYP450 2C9 = molecular target: T1, CYP450 2C9 (Homo sapiens, UniProt P11712); test: CYP inhibition in pooled human liver microsomes; assay type: in vitro ADME
T1 construct: pooled human liver microsomes; from tissue; host or cells: pooled human liver microsomes
T1 sequence (P11712 whole entry): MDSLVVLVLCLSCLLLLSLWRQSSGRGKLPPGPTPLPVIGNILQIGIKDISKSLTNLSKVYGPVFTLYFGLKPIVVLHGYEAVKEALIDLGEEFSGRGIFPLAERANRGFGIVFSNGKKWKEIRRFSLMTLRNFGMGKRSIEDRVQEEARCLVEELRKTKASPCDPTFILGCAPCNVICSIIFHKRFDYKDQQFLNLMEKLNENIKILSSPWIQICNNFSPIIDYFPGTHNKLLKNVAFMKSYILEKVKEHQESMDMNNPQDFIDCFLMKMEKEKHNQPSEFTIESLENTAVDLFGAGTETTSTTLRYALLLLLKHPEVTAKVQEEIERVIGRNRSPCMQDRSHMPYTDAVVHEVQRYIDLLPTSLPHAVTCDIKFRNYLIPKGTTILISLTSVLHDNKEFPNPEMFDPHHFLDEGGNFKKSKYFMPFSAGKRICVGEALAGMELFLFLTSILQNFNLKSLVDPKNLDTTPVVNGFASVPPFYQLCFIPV
Protocol: (§2) Cytochrome P450 (CYP) assays were conducted as previously described.[41] In brief, RNB-61 was incubated at a range of concentrations with the following components: pooled human liver microsomes, CYP probe substrate around the reported Km, and NADPH with a final concentration: 1 mM in 100 mM sodium phosphate buffer (pH 7.4). The conditions were optimized for a linear metabolic rate for the probe substrate reactions. The analysis of the samples was carried out by LC-MS/MS. The assays generated two endpoints: IC50 (μM) and percent inhibition at the highest acceptable test concentration (typically 50 μM; lower if the highest concentration data are rejected due to insolubility). […] (GSH) adduct formation data was assessed as reported in a previous study.[42] Briefly, RNB-61 was incubated with human liver microsomes to form reactive metabolites, and glutathione was added as a nucleophile to convert the reactive metabolites into stable conjugates that could be analyzed by MS.

CYP450 2D6 = molecular target: T2, CYP450 2D6 (Homo sapiens, UniProt P10635); test: CYP inhibition in pooled human liver microsomes; assay type: in vitro ADME
T2 construct: pooled human liver microsomes; from tissue; host or cells: pooled human liver microsomes
T2 sequence (P10635 whole entry): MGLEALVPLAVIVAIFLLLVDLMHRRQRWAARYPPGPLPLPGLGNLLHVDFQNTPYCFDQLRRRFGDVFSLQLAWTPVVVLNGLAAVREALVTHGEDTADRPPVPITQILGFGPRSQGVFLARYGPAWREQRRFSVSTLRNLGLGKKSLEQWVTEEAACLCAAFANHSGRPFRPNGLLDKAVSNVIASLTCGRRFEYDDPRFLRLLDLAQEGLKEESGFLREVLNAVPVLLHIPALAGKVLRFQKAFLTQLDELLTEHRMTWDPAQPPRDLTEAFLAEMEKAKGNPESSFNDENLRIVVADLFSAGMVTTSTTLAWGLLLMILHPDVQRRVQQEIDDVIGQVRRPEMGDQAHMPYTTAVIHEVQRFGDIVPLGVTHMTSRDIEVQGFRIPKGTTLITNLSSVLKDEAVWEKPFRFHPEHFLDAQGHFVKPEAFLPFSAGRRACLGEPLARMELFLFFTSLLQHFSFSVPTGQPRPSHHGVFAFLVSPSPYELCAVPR
Protocol: as §2

CYP450 3A4 = molecular target: T3, CYP450 3A4 (Homo sapiens, UniProt P08684); test: CYP inhibition in pooled human liver microsomes; assay type: in vitro ADME
T3 construct: pooled human liver microsomes; from tissue; host or cells: pooled human liver microsomes
T3 sequence (P08684 whole entry): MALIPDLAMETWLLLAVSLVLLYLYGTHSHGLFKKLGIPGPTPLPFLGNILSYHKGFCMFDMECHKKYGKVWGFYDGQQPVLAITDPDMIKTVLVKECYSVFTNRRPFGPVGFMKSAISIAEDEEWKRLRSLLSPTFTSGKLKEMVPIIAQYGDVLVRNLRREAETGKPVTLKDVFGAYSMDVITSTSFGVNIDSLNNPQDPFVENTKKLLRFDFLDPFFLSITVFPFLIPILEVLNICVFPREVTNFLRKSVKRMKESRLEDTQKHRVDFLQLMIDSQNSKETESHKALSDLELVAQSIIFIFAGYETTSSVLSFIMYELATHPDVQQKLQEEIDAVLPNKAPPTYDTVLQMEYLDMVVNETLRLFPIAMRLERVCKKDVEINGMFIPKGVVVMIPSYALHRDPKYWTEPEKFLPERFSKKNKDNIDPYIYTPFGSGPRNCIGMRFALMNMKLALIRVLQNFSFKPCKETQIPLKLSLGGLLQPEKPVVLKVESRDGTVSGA
Protocol: as §2

GSH adduct formation = assay type: in vitro ADME, rat
Protocol: as §2

With `Cn1c(C(C)(C)C)cc(=NC(=O)c2cc(C(F)(F)F)ccc2OCC(C)(C)O)n1CC1CCC1` [RNB-61] the “binding to 80 additional receptors (significant = ≥50% of probe displacement)” value (80 additional receptors; 10 μM, most receptors, exception Na+ channel site 2) was “no significant binding”, the “interaction with 80 additional receptor targets (significant = >50% inhibition)” value (80 additional receptors; up to 1 μM) was “no significant interaction” and the solubility at 15 h ([1]; aqueous buffer, read-out: aqueous solubility THESA) was 316 µg/mL (≈ 656 µM). The solubility at 15 h ([1]; fassif, fasted simulated gastrointestinal fluid, read-out: solubility FaSSIF) was 630 µg/mL (≈ 1310 µM), the solubility at 15 h ([1]; fessif, fed simulated gastrointestinal fluid, read-out: solubility FeSSIF) was 1370 µg/mL (≈ 2850 µM) and the logD ([2]; Table 3, read-out: clogP (cell says logD)) was 3.34. It also gave a logD ([2]; octanol/water, read-out: logD) of 3.3, a pKa (pKa) of 7.33 and a pKa (pKa; read-out: pKa) of 7.37. The “PAMPA %Acc” value [3] was 6%, the “PAMPA %Don” value [3] was 22% and the “PAMPA %Mem” value [3] was 72%. The “PAMPA Peff” value [3] was 2.14 × 10^–6 cm s^–1, the Papp ([3]; Table 1) was 2.14 ×10⁻⁶ cm/s and the Papp [3] was 0.9 ×10⁻⁶ cm/s. For the same compound, the hepatocyte CLint at 1 μM ([4]; C57BL6, mouse) was 48.5 µL/min/1e6 cells, the hepatocyte CLint at 1 μM ([4]; human, pooled cryopreserved human hepatocytes in suspension culture) was 85 µL/min/1e6 cells and the IC50 (CYP450 2C9) was 50 µM. The IC50 (CYP450 2D6) was 15.5 µM, the IC50 (CYP450 3A4) was 35.5 µM and the “GSH adducts (rat liver microsomes)” value (GSH adduct formation) was “did not form any adducts”.
